# Source: PubChem BioAssay (NCI)
#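 Protocol summary: plate cells (96-well), add compound at 5 concentrations, incubate 48 h, interpolate endpoints linearly. Definition used: TGI = concentration required for complete inhibition of growth.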
# How the values were obtained:
# Assay in all cases: NCI tumour cell line growth inhibition, 48 h
# [1] = system: UO-31 renal
# [2] = system: TK-10 renal
# [3] = system: UACC-62 melanoma
# [4] = system: K-562 leukemia
# [5] = system: SN12C renal
# [6] = system: SF-539 CNS
# [7] = system: DMS 273 small cell lung
# [8] = system: LXFL 529 NSCLC
# [9] = system: HL-60(TB) leukemia
# [10] = system: HT29 colon
# [11] = system: IGROV1 ovarian
# [12] = system: SK-OV-3 ovarian
# [13] = system: A549 NSCLC
# [14] = system: M19-MEL melanoma
# [15] = system: SW-620 colon
# [16] = system: RXF 393 renal
# [17] = system: OVCAR-5 ovarian
# [18] = system: SR leukemia
# [19] = system: HOP-18 NSCLC
# [20] = system: RPMI-8226 leukemia
# [21] = system: DLD-1 colon
# [22] = system: XF 498 CNS
# [23] = system: EKVX NSCLC
# [24] = system: SF-268 CNS
# [25] = system: NCI-H23 lung
# [26] = system: M14 melanoma
# [27] = system: OVCAR-8 ovarian
# [28] = system: UACC-257 melanoma
# [29] = system: SK-MEL-5 melanoma
# [30] = system: ACHN renal
# [31] = system: 786-0 renal
# [32] = system: U251 CNS
# [33] = system: DMS 114 small cell lung
# [34] = system: NCI-H460 lung
# [35] = system: OVCAR-4 ovarian
# [36] = system: OVCAR-3 ovarian
# [37] = system: MALME-3M melanoma
# [38] = system: KM12 colon
# [39] = system: SK-MEL-2 melanoma
# [40] = system: CCRF-CEM leukemia
# [41] = system: SNB-78 CNS
# [42] = system: LOX IMVI melanoma
# [43] = system: HCT-15 colon
# [44] = system: HOP-92 NSCLC
# [45] = system: NCI-H226 lung
# [46] = system: SK-MEL-28 melanoma
# [47] = system: A498 renal
# [48] = system: COLO 205 colon
# [49] = system: HOP-62 NSCLC
# [50] = system: SNB-75 CNS
# [51] = system: SF-295 CNS
# [52] = system: MOLT-4 leukemia
# [53] = system: KM20L2 colon
# [54] = system: HCC-2998 colon
# [55] = system: HCT-116 colon
# [56] = system: CAKI-1 renal
# [57] = system: NCI-H522 lung
# [58] = system: SNB-19 CNS
structure (smiles),measurement,setting,value
COC(=O)C1=C(c2ccc3c(c2)OCO3)O[C@H](c2cc(OC)c(OC)c(OC)c2)[C@H]1COC(C)=O,TGI,[1],31.6 µM
same,TGI,[2],> 100 µM
same,TGI,[3],47.6 µM
same,TGI,[4],> 100 µM
same,TGI,[5],37.9 µM
same,TGI,[6],6.91 µM
same,TGI,[7],> 100 µM
same,TGI,[8],36.3 µM
same,TGI,[9],32.5 µM
same,TGI,[10],11.5 µM
same,TGI,[11],81 µM
same,TGI,[12],5.94 µM
same,TGI,[13],47.8 µM
same,TGI,[14],27.9 µM
same,TGI,[15],> 100 µM
same,TGI,[16],5.09 µM
same,TGI,[17],> 100 µM
same,TGI,[18],70.3 µM
same,TGI,[19],60.9 µM
same,TGI,[20],> 100 µM
same,TGI,[21],> 100 µM
same,TGI,[22],36.8 µM
same,TGI,[23],> 100 µM
same,TGI,[24],> 100 µM
same,TGI,[25],17.7 µM
same,TGI,[26],13.6 µM
same,TGI,[27],93.6 µM
same,TGI,[28],56 µM
same,TGI,[29],7.83 µM
same,TGI,[30],> 100 µM
same,TGI,[31],42.3 µM
same,TGI,[32],18.4 µM
same,TGI,[33],5.8 µM
same,TGI,[34],> 100 µM
same,TGI,[35],> 100 µM
same,TGI,[36],8.22 µM
same,TGI,[37],92.5 µM
same,TGI,[38],50 µM
same,TGI,[39],> 100 µM
same,TGI,[40],> 100 µM
same,TGI,[41],> 100 µM
same,TGI,[42],55.3 µM
same,TGI,[43],> 100 µM
same,TGI,[44],36 µM
same,TGI,[45],> 100 µM
same,TGI,[46],> 100 µM
same,TGI,[47],2.94 µM
same,TGI,[48],3.02 µM
same,TGI,[49],84.7 µM
same,TGI,[50],> 100 µM
same,TGI,[51],11.4 µM
same,TGI,[52],27.8 µM
same,TGI,[53],8.72 µM
same,TGI,[54],19.6 µM
same,TGI,[55],19.6 µM
same,TGI,[56],66.8 µM
O=C(O/N=C1/CCCC/C1=C\c1ccccc1)c1ccccc1,TGI,[1],> 100 µM
same,TGI,[2],> 100 µM
same,TGI,[3],> 100 µM
same,TGI,[4],41 µM
same,TGI,[5],> 100 µM
same,TGI,[6],> 100 µM
same,TGI,[7],> 100 µM
same,TGI,[8],> 100 µM
same,TGI,[9],40.2 µM
same,TGI,[10],> 100 µM
same,TGI,[11],0.78 µM
same,TGI,[12],> 100 µM
same,TGI,[13],> 100 µM
same,TGI,[14],> 100 µM
same,TGI,[15],> 100 µM
same,TGI,[16],> 100 µM
same,TGI,[17],> 100 µM
same,TGI,[18],> 100 µM
same,TGI,[19],> 100 µM
same,TGI,[20],> 100 µM
same,TGI,[21],> 100 µM
same,TGI,[22],> 100 µM
same,TGI,[23],> 100 µM
same,TGI,[24],> 100 µM
same,TGI,[25],> 100 µM
same,TGI,[26],> 100 µM
same,TGI,[27],> 100 µM
same,TGI,[28],> 100 µM
same,TGI,[29],0.34 µM
same,TGI,[30],> 100 µM
same,TGI,[31],> 100 µM
same,TGI,[32],> 100 µM
same,TGI,[33],31.3 µM
same,TGI,[36],> 100 µM
same,TGI,[37],> 100 µM
same,TGI,[38],> 100 µM
same,TGI,[39],> 100 µM
same,TGI,[40],> 100 µM
same,TGI,[42],88.8 µM
same,TGI,[43],> 100 µM
same,TGI,[44],> 100 µM
same,TGI,[45],> 100 µM
same,TGI,[46],> 100 µM
same,TGI,[47],0.514 µM
same,TGI,[48],> 100 µM
same,TGI,[49],> 100 µM
same,TGI,[50],> 100 µM
same,TGI,[51],> 100 µM
same,TGI,[57],> 100 µM
same,TGI,[52],49 µM
same,TGI,[53],> 100 µM
same,TGI,[54],> 100 µM
same,TGI,[55],> 100 µM
same,TGI,[58],> 100 µM
